Assay results reported in PMC2646200 (Biochemistry, 2008).

B1: PDE8A1 (Homo sapiens) (protein)
chain: SLDDVPPRIARAMENEEYWDFDIFELEAATHNRPLIYLGLKMFARFGICEFLHCSESTLRSWLQIIEANYHSSNPYHNSTHSADVLHATAYFLSKERIKETLDPIDEVAALIAATIHDVDHPGRTNSFLCNAGSELAILYNDTAVLESHHAALAFQLTTGDDKCNIFKNMERNDYRTLRQGIIDMVLATEMTKHFEHVNKFVNSINKPLATLEENGETDKNQEVINTMLRTPENRTLIKRMLIKCADVSNPCRPLQYCIEWAARISEEYFSQTDEEKQQGLPVVMPVFDRNTCSIPKSQISFIDYFITDMFDAWDAFVDLPDLMQHLDNNFKYWKGLDEMK

Tests used:
PDE8A1 [1] = biological target: PDE8A1 (Homo sapiens, UniProt O60658, Y748F); test: 3H-cAMP hydrolysis assay, IC50; type: biochemical
PDE8A1 (Homo sapiens, UniProt O60658, Y748F), sequence (O60658 480-820 Y748F): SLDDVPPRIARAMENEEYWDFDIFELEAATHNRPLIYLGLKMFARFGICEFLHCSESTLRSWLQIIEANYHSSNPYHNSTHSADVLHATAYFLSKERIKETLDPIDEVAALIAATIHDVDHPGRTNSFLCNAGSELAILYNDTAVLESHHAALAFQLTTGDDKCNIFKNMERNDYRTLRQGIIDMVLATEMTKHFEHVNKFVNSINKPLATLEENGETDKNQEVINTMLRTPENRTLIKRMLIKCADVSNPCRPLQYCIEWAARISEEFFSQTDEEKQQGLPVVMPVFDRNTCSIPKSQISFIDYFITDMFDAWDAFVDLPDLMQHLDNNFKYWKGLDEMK

PDE8A1 [2] = biological target: PDE8A1 (Homo sapiens, UniProt O60658); test: 3H-cAMP hydrolysis assay, IC50; type: biochemical
purified protein = substrate: [H][C@@]12COP(=O)(O)O[C@@]1([H])[C@@H](O)[C@H](n1cnc3c(=O)[nH]c(N)nc31)O2; test: purified protein; conditions: Mn2+ ([…] MnCl2)

Molecule	IC50 (PDE8A1 [1]) [µM]	IC50 (PDE8A1 [2]) [µM]	Km (purified protein) [µM]
OCCN(CCO)c1nc(N2CCCCC2)c2nc(N(CCO)CCO)nc(N3CCCCC3)c2n1 [dipyridamole]	4.1 ± 0.4	6 ± 0.4	
B1			1600 ± 100
